What follows are compounds tested against T1, D-3-phosphoglycerate dehydrogenase (Homo sapiens, UniProt O43175) (assay: Binding affinity to human PHGDH (3 to 314 residues) expressed in Escherichia coli Rosetta (DE3) by isothermal titration calorimetry).
T1 sequence (O43175 whole entry): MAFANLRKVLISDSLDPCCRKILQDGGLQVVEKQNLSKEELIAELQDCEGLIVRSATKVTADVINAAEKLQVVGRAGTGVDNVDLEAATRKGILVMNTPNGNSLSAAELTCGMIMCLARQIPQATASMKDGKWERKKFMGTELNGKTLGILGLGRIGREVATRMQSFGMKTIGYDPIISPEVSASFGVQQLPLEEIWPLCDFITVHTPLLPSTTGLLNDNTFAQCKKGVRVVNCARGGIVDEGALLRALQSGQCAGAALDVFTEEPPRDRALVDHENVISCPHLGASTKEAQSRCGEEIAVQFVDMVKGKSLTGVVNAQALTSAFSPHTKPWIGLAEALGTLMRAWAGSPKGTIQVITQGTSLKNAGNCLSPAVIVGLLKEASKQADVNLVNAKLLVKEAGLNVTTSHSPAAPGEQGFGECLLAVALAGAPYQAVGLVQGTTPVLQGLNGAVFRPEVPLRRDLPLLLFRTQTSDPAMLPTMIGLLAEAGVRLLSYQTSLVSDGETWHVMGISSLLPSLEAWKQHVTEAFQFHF

Row | SMILES | Kd [µM]
1 | COc1ccc(NC(C)=O)cc1Cl | 1300
2 | Cc1cncc(Cc2cccc(CO)c2)n1 | 16600

The compounds below were run against T1, D-3-phosphoglycerate dehydrogenase (assay: Inhibition of human PHGDH using 3-PG as substrate by fluorescence based analysis).

Row | SMILES | IC50 [µM]
3 | O=C(c1ccc(Cl)cc1)N1CCOCC1 [(4-CHLOROPHENYL)(MORPHOLINO)METHANONE] | 10.4

These compounds were tested against T1, D-3-phosphoglycerate dehydrogenase (assay: Inhibition of human PHGDH expressed in Escherichia coli BL21 using 3-PG as substrate incubated for 30 mins by fluorescence based analysis).

Row | SMILES | IC50 [µM]
4 | C[C@H]1C(=O)OC([C@@H](O)[C@](C)(O)C2[C@@H](O)CC3C4C[C@H]5O[C@]56[C@@H](O)C=CC(=O)[C@]6(C)C4CC[C@@]32C)[C@@H]1C (some centres not stated) | 1.66
5 | COC(=O)[C@H](C)N1Cc2c(O)c(O)c(O)c(C)c2C1=O | 9.76

Each compound was assayed against T1, D-3-phosphoglycerate dehydrogenase (assay: Binding affinity to PHGDH (unknown origin) by isothermal titration calorimetry).

Row | SMILES | Kd [µM]
6 | NC(=O)c1cc2ccccc2s1 | 470

Each compound was assayed against T1, D-3-phosphoglycerate dehydrogenase (assay: Binding affinity to human PHGDH expressed in Escherichia coli BL21 incubated for 30 mins by MST assay).

Row | SMILES | Kd [µM]
7 | COC(=O)[C@H](C)N1Cc2c(O)c(O)c(O)c(C)c2C1=O | 15.2

These compounds were tested against T1, D-3-phosphoglycerate dehydrogenase (assay: Inhibition of human PHGDH by fluorescence based analysis).

Row | SMILES | IC50 [µM]
8 | S=C(SSC(=S)N1CCOCC1)N1CCOCC1 | 0.21
9 | S=C(SSC(=S)N(C1CCCCC1)C1CCCCC1)N(C1CCCCC1)C1CCCCC1 | 1.39
10 | CC1CCC(C)N1C(=S)SSC(=S)N1C(C)CCC1C (configuration not stated) | 0.42
11 | S=C(Nc1ccccc1)SSC(=S)Nc1ccccc1 | 0.36
12 | CN1CCN(C(=S)SCSC(=S)N2CCNCC2)CC1 | 67.3
13 | S=C(SSC(=S)N1CCN(c2ccccc2)CC1)N1CCN(c2ccccc2)CC1 | 0.41
14 | S=C(SSC(=S)N1CCN(C2CCCCC2)CC1)N1CCN(C2CCCCC2)CC1 | 0.57
15 | S=C(SSC(=S)N1CCN(Cc2ccccc2)CC1)N1CCN(Cc2ccccc2)CC1 | 22.5
16 | CN(C(=S)SSC(=S)N(C)c1ccccc1)c1ccccc1 | 0.42
17 | CCN(CC)C(=S)SCSC(=S)N(CC)CC | 45.9
18 | CN1CCN(C(=S)SSC(=S)N2CCN(C)CC2)CC1 | 0.17
19 | S=C(SSC(=S)N1CCSCC1)N1CCSCC1 | 0.34
20 | CC1CCN(C(=S)SSC(=S)N2CCC(C)CC2)CC1 | 0.58
21 | CN(C(=S)SSC(=S)N(C)C1CCCCC1)C1CCCCC1 | 1.01
22 | S=C(SSC(=S)N1CCc2ccccc2C1)N1CCc2ccccc2C1 | 0.38
23 | CCN(CC)C(=O)CSC(=S)N(CC)CC [(DIETHYLCARBAMOYL)METHYLENE DIETHYLCARBAMODITHIOATE] | > 1000
24 | CCN(CC)C(=S)CSC(=S)N(CC)CC [(DIETHYLTHIOCARBAMOYL)METHYLENE DIETHYLCARBAMODITHIOATE] | 36.4
25 | S=C(SSC(=S)N1CCCCC1)N1CCCCC1 [BIS(PIPERIDINYLTHIOCARBONYL)DISULFIDE] | 0.51

These compounds were tested against T1, D-3-phosphoglycerate dehydrogenase (assay: Inhibition of human PHGDH using 3-PG as substrate incubated for 60 mins by fluorescence based analysis).

Row | SMILES | IC50 [µM]
26 | O=C(c1cc(-c2ccccc2)n[nH]1)N1CCc2cc(S(=O)(=O)Nc3ncccn3)ccc21 | > 100
27 | Cc1cc(C)nc(NS(=O)(=O)c2ccc(NC(=O)c3cc(-c4ccccc4O)n[nH]3)cc2)n1 | < 50

Reference: ChEMBL document CHEMBL5230140, “A retrospective overview of PHGDH and its inhibitors for regulating cancer metabolism” (Eur J Med Chem, 2021)
